Data reported in ChEMBL document CHEMBL5604062, “ASAP - ZIKV NS2B-NS3 protease fluorescence dose response” (2024).
pIC50: −log10 of the molar value. Several values for one entry are separate records, joined by “and”; a condition that tells them apart may be missing. Identical values can stand only once.

target: Nonstructural protein 3 (Zika virus, UniProt A0A024AXB9); assay: Functional biochemical assay to identify treatments for viral infectious disease that targets Zika NS2B-NS3 protease. Utilizing a direct enzyme activity measurement method, reading the fluorescence intensity is used to characterize the relative potency of inhibitors as IC50.; parameters: species or system PRVABC59
Sequence (A0A024AXB9 whole entry): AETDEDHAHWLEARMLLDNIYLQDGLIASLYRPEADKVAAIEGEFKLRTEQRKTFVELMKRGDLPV

Compound	pIC50
COc1ccc(F)cc1-c1ccc(S(=O)(=O)Nc2ccc(Cl)cc2C(N)=O)cc1	4.14
N#Cc1ccccc1-c1ccc(S(=O)(=O)Nc2ccc(Cl)cc2C(=O)O)cc1	4.10
O=C(O)c1cc(Cl)c(F)cc1NS(=O)(=O)c1ccc(Oc2ccccc2Cl)cc1	4.98
CCn1c(=O)c(N2C[C@H]3COC[C@@]3(C)C2)nc2ccccc21	< 4.00
c1csc(-c2nnc(Sc3ncnc4sccc34)o2)c1	< 4.00
O=C(Nc1cc(Cl)cc(C(=O)NC2(c3nnn[nH]3)CC2)c1)OCc1ccccc1	< 4.00
COc1ccc(S(=O)(=O)Nc2cc(F)c(Cl)cc2C(=O)NCC(C)C)cc1	< 4.00
Cc1c(C(=O)Nc2cc(C(=O)N3CC(CO)C3)ccn2)cc(C2CC2)n1C	< 4.60
CN1C(=O)CC[C@H]1c1nc2c(C(=O)Nc3ccc4c(c3)CNC4)cc(F)cc2[nH]1	6.58
O=C1Cc2c(cccc2C(=O)Nc2ccc3c(c2)CNC3)N1	6.39 and 5.90
CC(C)NC(=O)[C@H](Nc1ccc2c(c1)CN(CC(F)F)C2)c1cc(Cl)cc2[nH]ncc12	< 4.60
O=C(Nc1ccc2c(c1)B(O)OC2)c1cccc(OCc2c(Cl)cccc2Cl)c1	< 4.00
Cc1cc(C)n(-c2ccc(NS(=O)(=O)c3ccc(Cl)cc3C(=O)O)cc2)n1	< 4.00
O=C(O)c1cc(Cl)ccc1S(=O)(=O)NC1CCN(c2nc(C3CC3)cc(C(F)(F)F)n2)CC1	4.33
Nc1nc(S(=O)(=O)c2ccccc2)c(Cl)s1	< 4.00
Brc1cccc2cn(Cc3ncccn3)nc12	< 4.00
O=Cc1ccc(N2CCC(C(=O)N3CCC(CCN4CCCC4)CC3)CC2)cc1	< 4.00
O=C(Nc1ccc2c(c1)OCO2)c1cc(Cl)cc2[nH]ncc12	< 4.00
COc1cc(C(=O)Nc2cnc3ccccc3c2)nc(N2CCNCC2)n1	< 4.00
O=C(O)c1cc(F)c(F)c(F)c1NS(=O)(=O)c1ccc(Oc2ccccc2Cl)cc1	4.05
N[C@H]1CCc2cc(-c3ccn(-c4ccccc4)n3)ccc2C1	< 4.00
CN(C)c1nc(-c2cc(F)cc(C(=O)Nc3ccc4c(c3)CNC4)c2)cs1	6.84
Cc1c(C(=O)Nc2cc(SC3COC3)ccn2)cc(C2CC2)n1C	< 4.60

Compound	pIC50
CCSc1ccc(Cl)cc1C(=O)Nc1ccc2c(c1)CNC2	6.15
COc1ccc([C@@H]2C[C@H]2NC(=O)c2cccc3c2CC(=O)N3)cc1	< 4.60
NCc1cc(S(=O)(=O)Nc2ccc(Cl)cc2C(=O)NCC(F)(F)F)ccc1Oc1ccccc1	< 4.00
O=C(Nc1ccc2c(c1)CNC2)c1ccc2sncc2c1	4.80
COC(=O)c1cc(Cl)ccc1NS(=O)(=O)c1ccc(Br)cc1	< 4.00
O=C(CSc1cccc(Br)c1)Nc1ccc2c(c1)CNC2	< 4.00
Cc1cc(C(=O)N[C@@H]2CC[C@@H]3CN(C)C[C@@H]32)sc1C=O	< 4.00
CC[C@H](Cc1nnn[nH]1)c1ccc(NC(=O)c2cc(Cl)cc3c2CCC3)cc1	< 4.00
O=C(O)c1cc(Cl)ccc1NS(=O)(=O)c1ccc(-c2cccc(F)c2F)cc1	4.59
O=C(O)c1cc(Cl)ccc1S(=O)(=O)Nc1ccc(-c2cccc(F)c2)cc1	< 4.00
O=C(Nc1ccc2c(c1)CNC2)c1cc(F)cc(C2=CCOCC2)c1	6.44
Cc1c(C(=O)Nc2cc(C(=O)N3CC[C@H](O)C3)ccn2)cc(C2CC2)n1C	< 4.60
Cc1c(C(=O)Nc2cc(C(=O)N[C@H]3CNC(=O)C3)ccn2)cc(C2CC2)n1C	< 4.60
O=C(O)c1cc(Cl)ccc1S(=O)(=O)NC1CCC(N2CCCCC2=O)CC1 (stereo not drawn)	< 4.00
CC1(NS(=O)(=O)c2ccc(Cl)cc2C(=O)O)CCN(c2ccccc2)CC1	< 4.00
N=C(N)NCCc1cccc(B(O)O)c1	< 4.00
O=C(O)c1cc(Cl)ccc1S(=O)(=O)Nc1ccc(N2CCCCC2)c(Cl)c1	< 4.00
CC(C)CCN1Cc2ccc(NC(=O)c3cc(Cl)cc4[nH]ncc34)cc2C1	5.47
Cc1ccc(F)c2c1CCN(Cc1ccn(C3CNC3)c1)C2	< 4.00
Cc1cccc(-c2ccc([C@@H](NC(=O)OCc3ccccc3)C(=O)Nc3cccc(CN)c3)cc2)c1	5.13
CN(C)CC[C@H](NC(=O)c1cc(Cl)cc(NC(=O)OCc2ccccc2)c1)c1ccccc1	< 4.00
CCc1cc(C(=O)Nc2cccc(-c3nnn[nH]3)c2)sc1-c1ccc(Cl)cc1	4.93 and 4.78
Fc1cc(CNc2ccc3c(n2)CNC3)c2cn[nH]c2c1	< 4.60

Compound	pIC50
CC1(C)CCC(F)(F)C[C@H]1C(=O)Nc1cccc(CN)c1	< 4.00
O=C(NCC(F)F)[C@H](Nc1ccc2c(c1)CNC2)c1cc(Cl)cc2[nH]ncc12	6.54
Cc1ccc(S(=O)(=O)N2CCC(NS(=O)(=O)c3ccc(Cl)cc3C(=O)O)CC2)cc1	< 4.00
O=C(Nc1ccc2c(c1)CNC2)N1CCC[C@H](Cc2nccs2)C1	< 4.60
CNC(=O)[C@H](Nc1cccc([C@H]2CCOC2)c1)c1cc(C2CC2)n(C)n1	< 4.60
Cc1ccc2cc(Cl)cc(C(=O)Nc3ccc4c(c3)CNC4)c2n1	6.06
Cn1cc(CCc2nc3c(C(=O)Nc4ccc5c(c4)CNC5)cc(Cl)cc3[nH]2)cn1	6.81
Cc1c(C(=O)Nc2cc(-c3cccnc3)ccn2)cc(C(C)C)n1C	< 4.60
Cc1cc(C(=O)Nc2ccc3c(c2)CNC3)cc2nc[nH]c12	6.92
CC(C)(C)OC(=O)NCc1cc(Br)cc(NC(=O)c2cc(Cl)cc(NC(=O)OCc3ccccc3)c2)c1	< 4.00
CCCCSc1ccc(Cl)cc1C(=O)Nc1cccc(CN)c1	4.65
Cc1c(NC(=O)c2cccc3c2CC(=O)N3)cnn1C1CCOCC1	< 4.60
Cc1c(C(=O)Nc2ccc3c(c2)CNCCO3)cc(C2CC2)n1C	< 4.00
O=C(Nc1ccc2c(c1)CNC2)c1ccnc(CO)c1	< 4.00
NCc1cccc(NC(=O)[C@@H]2CCC[C@H](OC(F)(F)F)C2)c1	< 4.00
O=C(Nc1ccc2c(c1)CS(=O)(=O)C2)c1cc(Cl)cc2[nH]ncc12	< 4.60
Cn1nc(C(=O)Nc2cc(-c3cccnc3)ccn2)cc1C1CC1	< 4.60
COC(=O)c1csc2cc(C(=O)N3CCCc4cc(CCN)ccc43)[nH]c12	< 4.00
O=C(Nc1cccnc1)c1cc(Cl)ccc1NS(=O)(=O)c1ccc(Oc2ccccc2Cl)cc1	< 4.00
O=C(Nc1ccc2c(c1)CNC2)c1cc(Cl)cc(N2CCCC2=O)c1	6.73
O=Cc1cc(Cl)cc(NC(=O)OCc2ccccc2)c1	< 4.00

Further lines, results first:

pIC50	Compound
< 4.00	O=C(O)c1cc(Cl)ccc1S(=O)(=O)Nc1nn(Cc2ccccc2)cc1Cl
4.15	NCc1cccc(NC(=O)C[C@H](NC(=O)OCc2ccccc2)c2ccc(Cl)c(F)c2)c1
< 4.00	NCc1cccc(NC(=O)c2cc(C3CC3)nn2-c2ccccc2)c1
< 4.00	O=C(Nc1cc(Cl)cc(C(=O)Nc2ccc3c(c2)C[C@H](O)C3)c1)OCc1ccccc1
< 4.00	O=C(Nc1ccc(Cl)cc1C(=O)O)c1ccc(Oc2ccccc2Cl)cc1
< 4.00 and 4.25	NCc1cccc(NC(=O)C[C@@H](NC(=O)OCc2ccccc2)C2CCCCC2)c1
4.10	NCc1cccc(NC(=O)[C@H](NC(=O)OCc2ccccc2)c2ccc(OCCc3cscn3)cc2)c1
4.72	C=C1C[C@H](c2cc(Cl)cc(NC(=O)OCc3ccccc3)c2)[C@@H](c2cccc(-c3nn[nH]n3)c2)C1
< 4.00	c1ccc(COc2ccc3c(CN4CCC(c5cscn5)CC4)c[nH]c3c2)cc1
4.18	NCc1cccc(CNC(=O)[C@@H](NC(=O)OCc2ccccc2)c2ccc(OCc3ccccc3)cc2)n1
< 4.00	Cc1oc2nc(-c3cc(Cl)cc(NC(=O)OCc4ccccc4)c3)ccc2c1C(=O)O
5.39 and 5.41	NCCc1cccc(NC(=O)c2cc(Cl)cc(NC(=O)OCc3ccccc3)c2)c1
4.84 and 4.89	NCc1cccc(NC(=O)C[C@@H](NC(=O)OCc2ccccc2)c2ccc(Cl)c(Br)c2)c1
4.34	NCc1cccc(NC(=O)Cc2cc(Cl)cc(NC(=O)OCc3ccccc3)c2)c1
< 4.00	NCc1cccc(NC(=O)[C@@H](NC(=O)c2cccnc2)c2ccc(OCc3ccccc3)cc2)c1
< 4.00	CS(=O)(=O)c1cccc(CNC(=O)[C@@H](NC(=O)OCc2ccccc2)c2ccc(OCc3ccccc3)cc2)c1
4.13	Clc1cc(Cl)c2c(CN3CCC(c4cscn4)CC3)c[nH]c2c1
< 4.00	CNCCS(=O)(=O)N1CCC([C@H](NC(=O)OCc2ccccc2)C(=O)Nc2cccc(CN)c2)CC1

pIC50	Compound
< 4.00	O=C(O)Cn1nc2ccc(-c3cc(Cl)cc(NC(=O)OCc4ccccc4)c3)nn2c1=O
< 4.00	O=C(c1cc(Cl)ccc1NS(=O)(=O)c1ccc(Oc2ccccc2Cl)cc1)N1CCNCC1
< 4.00	NCc1cccc(NC(=O)[C@@H]2c3ccsc3CCN2C(=O)OCc2ccccc2)c1
< 4.00	NCc1ccccc1Oc1ccc(S(=O)(=O)Nc2ccc(Cl)cc2C(=O)O)cc1
< 4.00 and 4.18	CCCOc1ccc([C@@H](CC(=O)Nc2cccc(CN)c2)NC(=O)OCc2ccccc2)cc1
< 4.00	O=C(Nc1cc(Cl)cc(C(=O)Nc2ccc3c(c2)CNC3=O)c1)OCc1ccccc1
< 4.00	C[C@@H]1C[C@H](NS(=O)(=O)c2ccc(Cl)cc2C(=O)O)C[C@H](C)N1Cc1ccccc1
4.66	NCc1cccc(NC(=O)c2cc(NC(=O)OCc3ccccc3)cc(C3CC3)c2)c1
5.24	N[C@H]1CCc2cc(NC(=O)c3cc(Cl)cc(NC(=O)OCc4ccccc4)c3)ccc21
4.26	NCc1cccc(NC(=O)c2c(F)c(Cl)cc(NC(=O)OCc3ccccc3)c2F)c1
< 4.00	O=C(Nc1cc(Cl)cc(C(=O)Nc2nccn2C2CNC2)c1)OCc1ccccc1
4.64	O=C(Nc1cc(Cl)cc([C@H]2C[C@@H]2c2ccc3c(c2)CNC3)c1)OCc1ccccc1
< 4.00	NCc1cccc(NC(=O)C[C@@H](NC(=O)OCc2ccccc2)c2ccc3c(c2)OCO3)c1
5.30	NCc1cccc(NC(=O)[C@H](NC(=O)OCc2ccccc2)c2ccc(OCc3ccccc3)c(Br)c2)c1
4.25	c1ccc2c(CN3CCC(c4cnco4)CC3)c[nH]c2c1
4.58	NS(=O)(=O)c1ccc(C2CCN(Cc3c[nH]c4ccccc34)CC2)cc1
< 4.00	CS(=O)(=O)c1ccc(-c2cccc([C@H](NC(=O)OCc3ccccc3)C(=O)Nc3cccc(CN)c3)c2)cn1
< 4.00	Cc1cc(CN(C)C)cc(NC(=O)[C@H](NC(=O)OCc2ccccc2)c2ccc(OCc3ccccc3)cc2)c1
